Reference: patent US6218406A, “Farnesyl transferase inhibitors, their preparation, the pharmaceutical compositions which contain them and their use in the preparation of medicaments” (Aventis Pharma S.A., priority 1996, dated 2001)
Read-outs that look alike come from different tables or passages of the source.

Biological target: farnesyl transferase (Homo sapiens, UniProt P49354+P49356)
Assay: Farnesyl transferase inhibition, [3H]-farnesylation of biotinylated K-ras C-terminal peptide (SPA assay)
Type: biochemical
Conditions: 60 min at 37° C., mean of two IC50 values
Procedure: The farnesyl transferase activity was measured by the amount farnesylated of K-ras substrate or of substrate derived from the peptide corresponding to its C-terminal part, the farnesyl group being introduced by farnesyl pyrophosphate (FPP).
It was then brought into contact with PVT-streptavidin (Amersham)® beads and was quantified by proximity scintillation (SPA assay) between the tritium and the PVT beads, by virtue of the streptavidin/biotin interaction.
Experimentally, farnesyl transferase purified according to the appended protocol was diluted, for this assay, to a concentration such that a consumption of substrates of less than 30% was obtained.
The reaction, carried out in Optiplates 96° microtitration plates, was initiated by the enzyme and lasted sixty minutes at 37° C. It was stopped by addition of 150 μl of mixture of a blocking buffer at pH 4 composed of 0.2M H3 PO4, 1.5 mM MgCl2, 0.5% (w/v) BSA, 0.05% (w/v) sodium azide containing 200 μg of PVT-streptavidin beads.
After slow agitation for thirty minutes (in order to remove the chemiluminescence), the plates were read as [^3 H]CPM in a Top Count® (Packard) scintillation counter for microplates, where they were converted into [^3 H]DPM from a range of coloured agent attenuating the scintillation (quenching).
The percentages of inhibition were calculated with respect to an inhibitor-free control after subtraction from all the values of that of a blank which only contained the substrates and the buffer.
The IC50 values were calculated or measured, from the inhibitions obtained at nine different concentrations, with Enzfitter® or Grafit® software. The IC50 values which appear in the results are the mean of measurements and calculations of two IC50 values.

[1] = K-Ras substrate, read-out: In vitro inhibitory activity (K-Ras) IC50

SMILES	IC50 [1]	IC50 (In vitro inhibitory activity (K-Ras) IC50, K-Ras substrate)
C=C(C(=O)N1C[C@@H]2[C@]3(c4ccc(OC)cc4)CC[C@@H](c4ccccc43)[C@]2(C(=O)OC)C1)c1ccccc1OC (racemic) [Example 73, methyl (3aRS,4SR,9SR,9aRS)-4,9-ethano-9-(4-methoxyphenyl)-2-[2-(2-methoxyphenyl)propenoyl]-2,3,3a,4,9,9a-hexahydro-1H-benzo[f]isoindole-3a-carboxylate]	460 nM	
C=C(C(=O)N1C[C@@H]2[C@]3(c4cccc(Cl)c4)CC[C@@H](c4ccccc43)[C@]2(C(=O)OC)C1)c1ccccc1OC (racemic) [Example 88, methyl (3aRS,4SR,9SR,9aRS)-9-(3-chlorophenyl)-4,9-ethano-2-[2-(2-methoxyphenyl)propenoyl]-2,3,3a,4,9,9a-hexahydro-1H-benzo[f]isoindole-3a-carboxylate]	404 nM	
C=C(C(=O)N1C[C@@H]2[C@]3(c4ccc(C(F)(F)F)cc4)CC[C@@H](c4ccccc43)[C@]2(C(=O)O)C1)c1ccccc1OC (single isomer, unassigned) [Example 41, dextrorotatory enantiomer of (3aRS,4SR,9SR,9aRS)-4,9-ethano-2-[2-(2-methoxyphenyl)propenoyl]-9-[4-(trifluoromethyl)phenyl]-2,3,3a,4,9,9a-hexahydro-1H-benzo[f]isoindole-3a-carboxylic Acid]	9 nM	
C=C(C(=O)N1C[C@H]2[C@@]3(c4ccc5c(c4)OCCO5)CC[C@H](c4ccccc43)[C@@]2(C(=O)NCc2cccnc2)C1)c1ccccc1OC (single isomer, unassigned) [Example 34, dextrorotatory enantiomer of (3aRS,4SR,9SR,9aRS)-9-(2,3-dihydro-1,4-benzodioxin-6-yl)-4,9-ethano-2-[2-(2-methoxyphenyl)propenoyl]-2,3,3a,4,9,9a-hexahydro-1H-benzo[f]isoindole-3a-N-(3-pyridylmethyl)carboxamide]	< 20 nM	
C=C(C(=O)N1C[C@@H]2[C@]3(c4ccc(C)cc4)CC[C@@H](c4ccccc43)[C@]2(C(=O)NS(=O)(=O)c2ccccc2)C1)c1ccccc1OC (racemic) [Example 25, (3aRS,4SR,9SR,9aRS)-4,9-ethano-2-[2-(2-methoxyphenyl)propenoyl]-9-(4-methylphenyl)-3a-phenylsulphonylaminocarbonyl-2,3,3a,4,9,9a-hexahydro-1H-benzo[f]isoindole]	193 nM	
C=C(C(=O)N1C[C@@H]2[C@]3(c4ccc(Br)cc4)CC[C@@H](c4ccccc43)[C@]2(C(=O)O)C1)c1ccccc1OC (racemic) [Example 50, (3aRS,4SR,9SR,9aRS)-9-(4-bromophenyl)-4,9-ethano-2-[2-(2-methoxyphenyl)propenoyl]-2,3,3a,4,9,9a-hexahydro-1H-benzo[f]isoindole-3a-carboxylic Acid]	59 nM	
C=C(C(=O)N1C[C@H]2[C@@]3(c4cccc(Cl)c4)CC[C@H](c4ccccc43)[C@@]2(C(=O)NCc2cccnc2)C1)c1ccccc1OC (relative stereo) [Example 90, (3aRS,4SR,9SR,9aRS)-9-(3-chlorophenyl)-4,9-ethano-2-[2-(2-methoxyphenyl)propenoyl]-2,3,3a,4,9,9a-hexahydro-1H-benzo[f]isoindole-3a-N-(3-pyridylmethyl)carboxamide]	68 nM	
C=C(C(=O)N1C[C@@H]2[C@]3(c4ccc(Cl)c(F)c4)CC[C@@H](c4ccccc43)[C@]2(C(=O)O)C1)c1ccccc1OC (racemic) [Example 67, (3aRS,4SR,9SR,9aRS)-9-(4-chloro-3-fluorophenyl)-4,9-ethano-2-[2-(2-methoxyphenyl)propenoyl]-2,3,3a,4,9,9a-hexahydro-1H-benzo[f]isoindole-3a-carboxylic Acid]	101 nM	
C=C(C(=O)N1C[C@@H]2[C@@]3(c4ccsc4)CC[C@@H](c4ccccc43)[C@]2(C(=O)O)C1)c1ccccc1OC (racemic) [Example 58, (3aRS,4SR,9SR,9aRS)-4,9-ethano-2-[2-(2-methoxyphenyl)propenoyl]-9-(3-thienyl)-2,3,3a,4,9,9a-hexahydro-1H-benzo[f]isoindole-3a-carboxylic Acid]		138 nM
